Peptide text beside a SMILES is read from it.
What was measured:
Assay in all cases: Antibacterial activity, ATP assay (BacTiter-Glo)
Type in all cases: cell-based
[1] = system: Escherichia coli ATCC 25922; conditions: ATP assay concentration: peptides 10, TOB 1.0, CPFX 0.015, OX 0.5, MEPM 0.1 μg/ml
Method: (§1) That is, using BacTiter-Glo Microbial Cell Viability Assay kit available from PROMEGA, the antibacterial activity of the peptides was evaluated from the viability of bacteria. […] With respect to the strains, Staphylococcus aureus ATCC29213 (S. aureus ATCC29213) as Gram-positive bacteria, or, alternatively, Pseudomonas aeruginosa (P. aeruginosa ATCC27853) as Gram-negative bacteria, was used. The bacteria were cultured in media for 3 to 4 hours, and thereafter absorbances at A600 were measured. Bacterial suspensions were diluted with Mueller-Hinton broth (MHB) according to McFarland #0.5. Each strain was added so as to attain about 0.5−1×10^5 CFU/mL (final concentration) in terms of Escherichia coli. […] A solution to which the peptides were not added was considered as a negative control, and a solution to which tobramycin (TOB) was added was considered as a positive control. […] Relative values were calculated by comparison with the negative control, and these values were regarded as the viability. […] ATP (%) of the antibacterial activity was measured in the same manner as mentioned above, and the “minimum inhibitory concentration (MIC)” was measured as follows. MIC is the lowest concentration of an agent that may inhibit the growth of a bacterium. MIC is used as a parameter for the efficacy of an antibacterial agent, for the strength of bacterial sensitivity, or the like. The bacteria can grow (proliferate) when the concentration is not higher than MIC, and cannot grow when the concentration is higher than MIC. Its measurement is carried out according to a method defined as a standard method by Japanese Society of Chemotherapy or CLINICAL AND LABORATORY […] (CLSI), but, in this Example, its measurement was carried out by a broth microdilution method in accordance with “M100-S17/M7-A7” (Performance Standards for Antimicrobial Susceptibility Testing; Seventeenth Informational Supplement, Vol. 27 No. 1) published by CLSI on January, 2007. That is, sensitivity test of agents was carried out using a microtiter plate or test tubes. With respect to each strain, Escherichia coli: ATCC 25922 (Escherichia coli ATCC 25922), Pseudomonas aeruginosa: ATCC 27853 (Pseudomonas aeruginosa ATCC 27853), Staphylococcus aureus: ATCC29213 (Staphylococcus aureus ATCC29213), Klebsiella pneumoniae: JCM 1662 (Klebsiella pneumoniae JCM 1662), enterobacteria (1): JCM 1232 (Enterobacter cloacae JCM 1232), enterobacteria (2): JCM 1235 (Enterobacter aerogenes JCM 1235), and Staphylococcus epidermidis: JCM 2414 (Staphylococcus epidermidis JCM 2414), were used. […] As the concentrations of the agents in ATP assay, the concentrations as described in the Tables were used.

[2] = system: Klebsiella pneumoniae JCM 1662; conditions: ATP assay concentration: peptides 10, TOB 4.0, CPFX 1.0, OX 0.5, MEPM 8.0 μg/ml
Method: as §1

[3] = system: Staphylococcus epidermidis JCM 2414; conditions: ATP assay concentration: peptides 10, TOB 1.0, CPFX 0.5, OX 0.5, MEPM 0.125 μg/ml
Method: as §1

[4] = system: Enterobacteria (2): Enterobacter aerogenes JCM 1235; conditions: ATP assay concentration: peptides 10, TOB 4.0, CPFX 1.0, OX 4.0, MEPM 8.0 μg/ml
Method: as §1

[5] = system: Enterobacteria (1): Enterobacter cloacae JCM 1232; conditions: ATP assay concentration: peptides 10, TOB 4.0, CPFX 1.0, OX 4.0, MEPM 8.0 μg/ml
Method: That is, using BacTiter-Glo Microbial Cell Viability Assay kit available from PROMEGA, the antibacterial activity of the peptides was evaluated from the viability of bacteria. […] With respect to the strains, Staphylococcus aureus ATCC29213 (S. aureus ATCC29213) as Gram-positive bacteria, or, alternatively, Pseudomonas aeruginosa (P. aeruginosa ATCC27853) as Gram-negative bacteria, was used. The bacteria were cultured in media for 3 to 4 hours, and thereafter absorbances at A600 were measured. Bacterial suspensions were diluted with Mueller-Hinton broth (MHB) according to McFarland #0.5. Each strain was added so as to attain about 0.5−1×10^5 CFU/mL (final concentration) in terms of Escherichia coli. […] A solution to which the peptides were not added was considered as a negative control, and a solution to which tobramycin (TOB) was added was considered as a positive control. […] Relative values were calculated by comparison with the negative control, and these values were regarded as the viability. […] ATP (%) of the antibacterial activity was measured in the same manner as mentioned above, and the “minimum inhibitory concentration (MIC)” was measured as follows. MIC is the lowest concentration of an agent that may inhibit the growth of a bacterium. MIC is used as a parameter for the efficacy of an antibacterial agent, for the strength of bacterial sensitivity, or the like. The bacteria can grow (proliferate) when the concentration is not higher than MIC, and cannot grow when the concentration is higher than MIC. […] (CLSI), but, in this Example, its measurement was carried out by a broth microdilution method in accordance with “M100-S17/M7-A7” (Performance Standards for Antimicrobial Susceptibility Testing; Seventeenth Informational Supplement, Vol. 27 No. 1) published by CLSI on January, 2007. That is, sensitivity test of agents was carried out using a microtiter plate or test tubes. With respect to each strain, Escherichia coli: ATCC 25922 (Escherichia coli ATCC 25922), Pseudomonas aeruginosa: ATCC 27853 (Pseudomonas aeruginosa ATCC 27853), Staphylococcus aureus: ATCC29213 (Staphylococcus aureus ATCC29213), Klebsiella pneumoniae: JCM 1662 (Klebsiella pneumoniae JCM 1662), enterobacteria (1): JCM 1232 (Enterobacter cloacae JCM 1232), enterobacteria (2): JCM 1235 (Enterobacter aerogenes JCM 1235), and Staphylococcus epidermidis: JCM 2414 (Staphylococcus epidermidis JCM 2414), were used. […] As the concentrations of the agents in ATP assay, the concentrations as described in the Tables were used.

Compound: C[C@@H](O)[C@H]1C(=O)N2C(C(=O)O)=C(S[C@@H]3CN[C@H](C(=O)N(C)C)C3)[C@H](C)[C@H]12 [MEPM, meropenem, reference compound]
- ATP (%) mean, Escherichia coli [1]: 15.7%
- ATP (%) mean, Klebsiella pneumoniae [2]: 11.9%
- ATP (%) mean, Staphylococcus epidermidis [3]: 28.2%
- ATP (%) mean, Enterobacteria (2) [4]: 2.3%
- ATP (%) mean, Enterobacteria (1) [5]: 5.6%

Compound: Cc1onc(-c2ccccc2)c1C(=O)N[C@@H]1C(=O)N2[C@@H]1SC(C)(C)[C@@H]2C(=O)O [OX, oxacillin, reference compound]
- ATP (%) mean, Escherichia coli [1]: 114.4%
- ATP (%) mean, Klebsiella pneumoniae [2]: 142.2%
- ATP (%) mean, Staphylococcus epidermidis [3]: 101.4%
- ATP (%) mean, Enterobacteria (2) [4]: 86.9%
- ATP (%) mean, Enterobacteria (1) [5]: 97.7%

Compound: CC[C@H](C)[C@H](NC(=O)[C@H](CC(C)C)NC(=O)[C@H](CCCCN)NC(=O)[C@H](CC(C)C)NC(=O)[C@@H](N)CCSC)C(=O)N[C@@H](Cc1ccccc1)C(=O)N[C@@H](CC(C)C)C(=O)N[C@@H](Cc1c[nH]cn1)C(=O)N[C@@H](CCCNC(=N)N)C(=O)N[C@@H](CC(C)C)C(=O)N[C@@H](CCCCN)C(=O)N[C@@H](CCCNC(=N)N)C(=O)N[C@@H](CCSC)C(=O)N[C@@H](CCCNC(=N)N)C(=O)N[C@@H](CCCCN)C(=O)N[C@@H](CCCNC(=N)N)C(=O)N[C@@H](CC(C)C)C(=O)N[C@@H](CCCCN)C(=O)N[C@@H](CCCNC(=N)N)C(=O)N[C@@H](CCCCN)C(=O)O [SR-1] (H-MLKLIFLHRLKRMRKRLKRK-OH; N-terminus assumed)
- ATP (%) mean, Escherichia coli [1]: 18.4%
- ATP (%) mean, Klebsiella pneumoniae [2]: 22.1%
- ATP (%) mean, Staphylococcus epidermidis [3]: 5.2%
- ATP (%) mean, Enterobacteria (2) [4]: 39.4%
- ATP (%) mean, Enterobacteria (1) [5]: 4.9%

Compound: CC(C)C[C@H](NC(=O)[C@H](CCCCN)NC(=O)[C@H](CCCNC(=N)N)NC(=O)[C@H](CCCCN)NC(=O)[C@H](CC(C)C)NC(=O)[C@H](CCCNC(=N)N)NC(=O)[C@H](CCCCN)NC(=O)[C@H](CCCNC(=N)N)NC(=O)[C@H](CC(C)C)NC(=O)[C@H](CCCNC(=N)N)NC(=O)[C@H](CCCNC(=N)N)NC(=O)[C@H](CCCCN)NC(=O)[C@H](CC(C)C)NC(=O)[C@H](CCCNC(=N)N)NC(=O)[C@H](Cc1c[nH]cn1)NC(=O)[C@H](CC(C)C)NC(=O)[C@H](Cc1ccccc1)NC(=O)[C@H](CCCNC(=N)N)NC(=O)[C@H](CC(C)C)NC(=O)[C@@H](N)CCC(=O)O)C(=O)N[C@@H](CCCNC(=N)N)C(N)=O [SR-2] (H-ELRFLHRLKRRLRKRLKRKLR-NH2; N-terminus assumed)
- ATP (%) mean, Escherichia coli [1]: 6.2%
- ATP (%) mean, Klebsiella pneumoniae [2]: 9.1%
- ATP (%) mean, Staphylococcus epidermidis [3]: 2.6%
- ATP (%) mean, Enterobacteria (2) [4]: 15.3%
- ATP (%) mean, Enterobacteria (1) [5]: 3.0%

Compound: CSCC[C@H](NC(=O)[C@H](CCCNC(=N)N)NC(=O)[C@H](CCCCN)NC(=O)[C@H](CC(C)C)NC(=O)[C@H](CCCNC(=N)N)NC(=O)[C@H](Cc1c[nH]cn1)NC(=O)[C@H](CC(C)C)NC(=O)[C@H](Cc1ccccc1)NC(=O)[C@H](CCCNC(=N)N)NC(=O)[C@H](CC(C)C)NC(=O)[C@@H](N)CCC(=O)O)C(=O)N[C@@H](CCCNC(=N)N)C(=O)N[C@@H](CCCCN)C(=O)N[C@@H](CCCNC(=N)N)C(=O)N[C@@H](CC(C)C)C(=O)N[C@@H](CCCCN)C(=O)N[C@@H](CCCNC(=N)N)C(=O)N[C@@H](CCCCN)C(=O)N[C@@H](CC(C)C)C(=O)N[C@@H](CCCNC(=N)N)C(N)=O [SR-3] (H-ELRFLHRLKRMRKRLKRKLR-NH2; N-terminus assumed)
- ATP (%) mean, Escherichia coli [1]: 16.5%
- ATP (%) mean, Klebsiella pneumoniae [2]: 20.3%
- ATP (%) mean, Staphylococcus epidermidis [3]: 4.1%
- ATP (%) mean, Enterobacteria (2) [4]: 23.5%
- ATP (%) mean, Enterobacteria (1) [5]: 4.3%

Compound: CC[C@H](C)[C@H](NC(=O)[C@H](CC(C)C)NC(=O)[C@@H](N)CCCCN)C(=O)N[C@@H](Cc1ccccc1)C(=O)N[C@@H](CC(C)C)C(=O)N[C@@H](Cc1c[nH]cn1)C(=O)N[C@@H](CCCNC(=N)N)C(=O)N[C@@H](CC(C)C)C(=O)N[C@@H](CCCCN)C(=O)N[C@@H](CCCNC(=N)N)C(=O)N[C@@H](CCSC)C(=O)N[C@@H](CCCNC(=N)N)C(=O)N[C@@H](CCCCN)C(=O)N[C@@H](CCCNC(=N)N)C(=O)N[C@@H](CC(C)C)C(=O)N[C@@H](CCCCN)C(=O)N[C@@H](CCCNC(=N)N)C(=O)N[C@@H](CCCCN)C(=O)N[C@@H](CC(C)C)C(=O)N[C@@H](CCCNC(=N)N)C(N)=O [SR-4] (H-KLIFLHRLKRMRKRLKRKLR-NH2; N-terminus assumed)
- ATP (%) mean, Escherichia coli [1]: 13.0%
- ATP (%) mean, Klebsiella pneumoniae [2]: 15.0%
- ATP (%) mean, Staphylococcus epidermidis [3]: 5.5%
- ATP (%) mean, Enterobacteria (2) [4]: 20.9%
- ATP (%) mean, Enterobacteria (1) [5]: 4.9%

Compound: CSCC[C@H](NC(=O)[C@H](CCCNC(=N)N)NC(=O)[C@@H](N)CCCCN)C(=O)N[C@@H](CCCNC(=N)N)C(=O)N[C@@H](CCCCN)C(=O)N[C@@H](CCCNC(=N)N)C(=O)N[C@@H](CC(C)C)C(=O)N[C@@H](CCCCN)C(=O)N[C@@H](CCCNC(=N)N)C(=O)N[C@@H](CCCCN)C(=O)N[C@@H](CC(C)C)C(=O)N[C@@H](CCCNC(=N)N)C(=O)N[C@@H](CC(C)C)C(=O)N[C@@H](Cc1c[nH]c2ccccc12)C(=O)N[C@@H](Cc1c[nH]cn1)C(=O)N[C@@H](CCCNC(=N)N)C(=O)N[C@@H](CCCCN)C(=O)N[C@@H](CCCNC(=N)N)C(=O)N[C@@H](Cc1ccc(O)cc1)C(=O)N[C@@H](CCCCN)C(=O)O [SR-5] (H-KRMRKRLKRKLRLWHRKRYK-OH; N-terminus assumed)
- ATP (%) mean, Escherichia coli [1]: 27.0%
- ATP (%) mean, Klebsiella pneumoniae [2]: 30.0%
- ATP (%) mean, Staphylococcus epidermidis [3]: 3.6%
- ATP (%) mean, Enterobacteria (2) [4]: 41.5%
- ATP (%) mean, Enterobacteria (1) [5]: 3.4%

Reference: patent US9376470B2, “Polypeptide having angiogenesis-inducing activity and antibacterial activity, and use thereof for medical purposes” (FunPep Inc., priority 2008, dated 2016)
